The test system of the experiment is Huh7 psiCHECK-miR122 Renilla luciferase reporter, 48 h. The experiment in a line: miR-122 inhibitors in Huh7 reporter cells, dose response, cell-based, Huh7 psiCHECK-miR122, Renilla luciferase, cherry-pick (AID 652053).
In the case of `O=S(=O)(N/N=C\c1cccn1-c1ccccc1)c1ccc2ccccc2c1`, the AC40 was 0.263 µM.

In the case of `Cc1ccc(C2=NN3C(C(=O)c4ccccc4)Oc4ccccc4C3C2)cc1` (stereo not given), the AC40 was 4.05 µM. Turning to `COc1ccc(NP(=O)(Oc2ccc(Cl)cc2)Oc2ccc(Cl)cc2)cc1OC`, the AC40 was 7.43 µM.

On to `CN1c2ccc(-c3ccccc3F)cc2[C@H]2[C@H](CCN2S(=O)(=O)c2ccccc2F)[C@H]1CO`, for which the AC40 was 2.4 µM.

On to `COc1ccc(NS(=O)(=O)c2ccc(N3CCOCC3)c(NC(=O)c3cccc(F)c3)c2)cc1`, for which the AC40 is 8.96 µM.

In the case of `C[C@@H]1CN([C@@H](C)CO)C(=O)Cc2cc(NC(=O)Nc3ccc(C(F)(F)F)cc3)ccc2O[C@@H]1CN(C)C(=O)Nc1cccc2ccccc12`, the AC40 was 4.39 µM. Under `CCOc1cc(C)c(S(=O)(=O)Nc2ccc3cn[nH]c3c2)cc1C` stands 1.24 µM. Under `Clc1cccc(Cl)c1CSc1nnc(CN2CCOCC2)n1-c1ccccc1` stands 10.4 µM; under `Cc1ccc(C)c(S(=O)(=O)Nc2ccc3cn[nH]c3c2)c1`, 3.58 µM; under `C[C@@H]1CN([C@@H](C)CO)C(=O)Cc2cc(NC(=O)Nc3ccc4c(c3)OCO4)ccc2O[C@@H]1CN(C)C(=O)Nc1cccc2ccccc12`, 10.9 µM. Take `CCOc1ccc(Br)cc1S(=O)(=O)NCc1ccncc1`: the AC40 is 1.9 µM. Under `CC(C)(C)NS(=O)(=O)c1ccc2[nH]c3c(c2c1)CCCCC3` stands 5.04 µM.

Take `COc1ccc(S(=O)(=O)Nc2cc3c4c(c2)CCC(=O)N4CCC3)cc1C`: the AC40 was 6.67 µM. The value for `COc1cc(NS(=O)(=O)c2csc(C(N)=O)c2)cc(OC)c1` was 1.51 µM. The value for `O=C(NC1CCCC1)C(c1ccccc1)N(Cc1ccc2c(c1)OCO2)C(=O)Cc1cccs1` (stereo not given) was 6.85 µM; that for `CCNc1ccc(S(=O)(=O)N(C)C)cc1NCC(=O)Nc1ccc(F)c(Cl)c1` was 1.45 µM. For `CCc1ccc(-c2cc(C)no2)cc1S(=O)(=O)NC(C)Cc1ccco1` (stereo not given), the AC40 was below 0.26 µM.

`O=S(=O)(c1ccccc1)N1C[C@H]2[C@@H](c3ccccc31)[C@@H](CO)N2Cc1ccc2c(c1)OCO2`: the AC40 is 8.56 µM. The value for `COc1cccc(CC(=O)Nc2ccc(N3CCOCC3)c(S(=O)(=O)Nc3ccccc3OC)c2)c1` was 1.48 µM; that for `CCN(CC)S(=O)(=O)c1cc(NS(=O)(=O)c2cc(Cl)ccc2Cl)ccc1C` was 4.19 µM. Under `C[C@@H]1CN([C@@H](C)CO)C(=O)c2cccc(N(C)C)c2O[C@@H]1CN(C)Cc1ccc(C(=O)Nc2ccccc2N)cc1` stands 3.25 µM; under `Cc1cc(S(=O)(=O)NCC2CC2)c(Cl)cc1Cl`, 2.7 µM. The value for `CCN1C(=O)c2cccc3c(S(=O)(=O)N(C(=O)c4cccnc4)c4ccc(OC)cc4)ccc1c23` was 1.21 µM; that for `C[C@@H]1CN([C@H](C)CO)C(=O)c2cccc(NC(=O)Nc3ccccc3)c2O[C@H]1CN(C)Cc1ccc(C(F)(F)F)cc1` was 3.22 µM. As to `CC(C)C(=O)Nc1cc(S(=O)(=O)Nc2cccc(Cl)c2)ccc1Cl`, the AC40 is 1.52 µM. The value for `C[C@H]1CN([C@@H](C)CO)C(=O)c2cccc(NC(=O)C3CCOCC3)c2O[C@@H]1CN(C)Cc1ccc(C(F)(F)F)cc1` was 1.51 µM; that for `Cc1ccc(NS(=O)(=O)c2cc(C(=O)Nc3cccc([N+](=O)[O-])c3)ccc2C)cc1` was 2.5 µM; that for `NC(=O)Cn1cc(/C=N\NS(=O)(=O)c2ccc(F)cc2)c2ccccc21` was 3.22 µM. Under `Cc1cccc(C)c1NC(=S)NC(C)CCc1ccccc1` (stereo not given) stands 17 µM; under `O=S(=O)(NCCc1ccncc1)c1cc(Br)ccc1F`, 2.66 µM. Under `CCOc1cc(S(=O)(=O)Nc2cc(C)cc(C)c2)ccc1Cl` stands 1.99 µM. `C[C@@H]1CN([C@@H](C)CO)C(=O)c2cc(NC(=O)Nc3ccccc3)ccc2O[C@@H]1CN(C)Cc1ccc(C(=O)Nc2ccccc2N)cc1`: the AC40 was 13.4 µM. Under `Cc1cc(C)cc(NS(=O)(=O)c2ccc3c(c2)C(C)(C)C(=O)N3C)c1` stands 1.21 µM. The value for `COc1ccc(NS(=O)(=O)c2cc(NC(=O)c3ccc(=O)[nH]c3)ccc2C)cc1` was 2.64 µM; that for `O=C(c1ccccc1F)N1C[C@H]2[C@@H](c3ccccc31)[C@@H](CO)N2C(=O)c1ccc(F)cc1` was 2.4 µM; that for `COc1ccc(C)cc1S(=O)(=O)NC1CCCCC1` was 1.31 µM. Turning to `Cc1nc2ccc(S(=O)(=O)Nc3ccccc3C)cc2s1`, the AC40 was 22.2 µM. The value for `C[C@H](CO)N1C[C@H](C)[C@@H](CN(C)Cc2ccc(C(F)(F)F)cc2)Oc2c(cccc2N(C)C)C1=O` was 2.48 µM. In the case of `CCN(CC)C(=S)Nc1ccc(Cl)c(Cl)c1`, the AC40 is 16 µM. The value for `COc1ccc(NS(=O)(=O)c2cc(C)ccc2C)cc1` was 1.47 µM.

Regarding `CC(C)CCC(CC(C)O)C(=O)NNC(=S)Nc1ccccc1` (stereo not given), the AC40 is 9.74 µM. In the case of `COc1ccc(F)cc1S(=O)(=O)NC1CCCCCC1`, the AC40 is 5.11 µM.

For `COc1cccc(C(O)c2ncc(-c3cccc(F)c3)[nH]2)c1` (stereo not given), the AC40 was 17.3 µM. As to `Cc1ccccc1S(=O)(=O)N1CC[C@@H]2[C@@H](CO)N(C)c3ccc(-c4ccccc4)cc3[C@@H]21`, the AC40 was 4.05 µM.

`CC(=O)N1c2c(cc(Br)cc2S(=O)(=O)NCC2COc3ccccc3O2)CC1C` (stereo not given): the AC40 was 4.53 µM. For the molecule `Cc1cc(S(=O)(=O)Nc2ccc3ccccc3c2)c(C)s1`, the AC40 was 1.06 µM. As to `O=S(=O)(Nc1cccc(-c2cn3ccsc3n2)c1)c1ccc(F)cc1`, the AC40 was 6.48 µM. Take `O=C(Nc1ccccc1)N1C[C@H]2[C@@H](c3ccccc31)[C@@H](CO)N2C(=O)c1ccccn1`: the AC40 is 33.7 µM. Regarding `Cc1sc2ncn(CC(=O)N(CC(=O)NC3CCCC3)Cc3cccs3)c(=O)c2c1C`, the AC40 was 20 µM. In the case of `Cc1ccccc1NS(=O)(=O)c1cc(C(=O)Nc2cccnc2)ccc1C`, the AC40 is 5.17 µM. The value for `CC(=O)c1cccc(NS(=O)(=O)c2ccc3c(c2)oc(=O)n3C)c1` was 7.31 µM; that for `CCOc1ccc(Br)cc1S(=O)(=O)NC1CCCC1` was 1.29 µM. The value for `Cc1cc(S(=O)(=O)Nc2cc(C)c(O)c(C)c2)c(C)s1` was 24.9 µM. Under `COc1ccc(S(=O)(=O)Nc2ccc(F)cc2)c(C)c1C` stands 0.922 µM; under `O=C(Nc1ccc(S(=O)(=O)NC2CCCCC2)cc1)c1ccc(Br)o1`, 1.66 µM. Regarding `COc1ccccc1NS(=O)(=O)c1cc(NC(=O)c2cc(=O)[nH]c3ccccc23)ccc1N1CCOCC1`, the AC40 was 1.01 µM. The value for `CCCC(C)NS(=O)(=O)c1ccc(OC)c(C)c1` (stereo not given) was 10 µM; that for `O=C(NCc1cccc(Cl)c1)c1ccc(S(=O)(=O)Nc2cccc(C(F)(F)F)c2)cc1` was 22.5 µM. Under `CCOC(=O)c1cc(S(=O)(=O)Nc2cccc(OC)c2)cn1C` stands 1.84 µM. Consider `O=C(Nc1ccc(S(=O)(=O)NCc2ccccc2)cc1)Nc1ccc2c(c1)OCO2`, for which the AC40 is 2.08 µM. As for `CSc1cccc(NS(=O)(=O)c2cc(Br)cnc2N)c1`, the AC40 was 2.5 µM.

As to `N#CC1c2ccccc2-c2ccccc2N1C(=O)c1ccccc1` (stereo not given), the AC40 is 8.39 µM. Take `CCOc1ccc(S(=O)(=O)NCCN2CCOCC2)c2ccccc12`: the AC40 is 1.14 µM.

`O=S(=O)(NCCc1ccncc1)c1ccc(Br)cc1`: the AC40 is 1.15 µM. Regarding `Cc1cccc(C(O)c2ncc(-c3ccccc3F)[nH]2)c1C` (stereo not given), the AC40 is 5.74 µM. Regarding `COc1ccc(OC)c(S(=O)(=O)NCc2ccccc2)c1`, the AC40 is 0.781 µM. In the case of `C[C@@H]1CN([C@H](C)CO)C(=O)c2cccc(NC(=O)Nc3ccccc3)c2O[C@@H]1CN(C)Cc1ccc(C(=O)Nc2ccccc2N)cc1`, the AC40 was 20.5 µM. The value for `CNC(=S)Nc1ccc(N2CCCC2)c(S(=O)(=O)Nc2ccc(OC)cc2)c1` was 1.31 µM; that for `CSc1ccc(S(=O)(=O)NC2CC3CCC2C3)cc1` (stereo not given) was 5.6 µM; that for `COc1cc(C)c(S(=O)(=O)Nc2ccccc2F)cc1C` was 3.14 µM. Regarding `Cc1ccc(NS(=O)(=O)c2cc(-c3cc(C)no3)ccc2C(C)C)nc1`, the AC40 was 2.23 µM. For the molecule `CCOc1ccccc1C(=O)N1CCN(c2cccc(Cl)c2)CC1`, the AC40 was 11.6 µM. Take `CCCC(=O)Nc1ccc2c(c1)C(=O)N(C)[C@H]1CC[C@@H](CC(=O)NCc3cccc(F)c3)O[C@H]1CO2`: the AC40 is 0.762 µM. Under `COc1ccc(OC)c(S(=O)(=O)Nc2ccc(C(C)=O)cc2)c1` stands 1.58 µM; under `C[C@H](CO)N1C[C@H](C)[C@@H](CN(C)Cc2ccc3c(c2)OCO3)Oc2c(NC(=O)Nc3ccccc3)cccc2C1=O`, 8.95 µM.

Turning to `COc1ccc(S(=O)(=O)NC2CC3CCC2C3)cc1Cl` (stereo not given), the AC40 is 4.66 µM.

Consider `CCOc1cc(C)c(S(=O)(=O)Nc2ccc(F)cc2)cc1C`, for which the AC40 is 0.908 µM. Under `COc1ccccc1NS(=O)(=O)c1cc(NC(=O)Nc2ccccc2)ccc1N1CCCCC1` stands 1.37 µM.

In the case of `O=C(c1cn(Cc2ccccc2)nc1-c1ccc(Cl)cc1)N1CCN(c2ccccn2)CC1`, the AC40 is 3.28 µM. The value for `O=S(=O)(NCCc1ccc(F)cc1)c1cc(C(F)(F)F)ccc1Br` was below 0.26 µM. The value for `CC(=O)Nc1ccc2c(c1)C(=O)N(C)[C@H]1CC[C@@H](CC(=O)NCc3ccc(Cl)cc3)O[C@H]1CO2` was 11 µM; that for `C[C@H](CO)N1C[C@H](C)[C@@H](CN(C)Cc2ccc(Cl)c(Cl)c2)Oc2c(NS(=O)(=O)c3cccs3)cccc2C1=O` was 2.7 µM. For the molecule `CCN(CC)c1ccc(NC(=O)c2ccccn2)cc1S(=O)(=O)Nc1ccccc1OC`, the AC40 is 4.42 µM. The value for `Cc1cc(S(=O)(=O)N(Cc2ccccc2F)C2CC2)ccc1-n1cnnn1` was 1.94 µM; that for `C[C@H](CO)N1C[C@H](C)[C@H](CN(C)CC2CCCCC2)Oc2c(NC(=O)c3cnccn3)cccc2C1=O` was 1.12 µM; that for `CC(c1ccco1)N(C(=O)CSc1ccc(Br)cc1)c1ccccn1` (stereo not given) was 14.4 µM. Under `O=C(NCc1ccncc1)c1cccc(S(=O)(=O)Nc2ccc(F)cc2)c1` stands 3.23 µM; under `O=S(=O)(/N=C(/Nc1ccc(Cl)c(S(=O)(=O)Nc2ccccc2Cl)c1)c1ccc(F)cc1)c1ccccc1`, 26.8 µM. In the case of `Nc1c(S(=O)(=O)c2cc(Cl)ccc2Cl)c2nc3ccccc3nc2n1CCN1CCOCC1`, the AC40 is 6.22 µM. As for `COC(=O)c1ccc(NS(=O)(=O)c2cc(C)ccc2OC)cc1`, the AC40 was 4.89 µM.

(Values after PubChem BioAssay AID652053 (Broad Institute, 2013).)
